Assay type in all cases: cell-based
Test [1] concerns the target T1, human prostanoid EP1 receptor (Homo sapiens, UniProt P34995).
T1 construct: expressed in transfected cells
T1 sequence (P34995 1-402): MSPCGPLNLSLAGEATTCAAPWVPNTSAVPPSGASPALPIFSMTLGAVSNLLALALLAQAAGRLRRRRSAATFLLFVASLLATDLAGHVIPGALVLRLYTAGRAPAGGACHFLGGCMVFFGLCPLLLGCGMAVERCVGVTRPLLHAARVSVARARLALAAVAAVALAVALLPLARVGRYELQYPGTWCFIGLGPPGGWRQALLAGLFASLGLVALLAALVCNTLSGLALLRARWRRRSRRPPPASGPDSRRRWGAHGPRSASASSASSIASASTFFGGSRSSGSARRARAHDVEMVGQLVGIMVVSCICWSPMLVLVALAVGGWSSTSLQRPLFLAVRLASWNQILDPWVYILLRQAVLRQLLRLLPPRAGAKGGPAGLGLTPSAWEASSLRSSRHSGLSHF
The test is described as follows: FLIPR Ca2+ signaling PG antagonist assay, EP1 stable cell line. To be noted: HEK-293 EBNA cells, human recombinant EP1, no exogenous G-protein; standard agonist PGE2. On the procedure:
(§1) The above compounds were tested for PG antagonist activity as follows using human recombinant prostanoid receptor (DP1, EP1-4, FP, IP and TP) stable cell lines: In order to measure the response of Gs and Gi coupled prostanoid receptors as a Ca^2+ signal, chimeric G protein cDNAs were used. Stable cell lines over-expressing human prostanoid DP1, EP1-4, FP, IP, and TP receptors were established as follows:
(§2) Briefly, human prostanoid DP1, EP2, and EP4 receptor cDNAs were co-transfected with chimeric Gqs cDNA containing a haemagglutanin (HA) epitope; human prostanoid EP3 receptors were co-transfected with chimeric Gqi-HA; human EP1, FP, IP, and TP receptor cDNAs were expressed with no exogenous G-proteins. Gqs and Gqi chimeric cDNAs (Molecular Devices, Sunnyvale, Calif., U.S.A.), as well as cDNAs of prostanoid receptors, were cloned into a pCEP4 vector with a hygromycin B selection marker. Transfection into HEK-293 EBNA (Epstein-Barr virus nuclear antigen) cells was achieved by the FuGENE 6 transfection Reagent (Roche Applied Science, Indianapolis, Ind., USA). Stable transfectants were selected according to hygromycin resistance. Because Gqs and Gqi contained an HA epitope, G-protein expression was detected by Western blotting analysis using anti-mouse HA monoclonal antibody and horseradish peroxidase (HRP)-conjugated secondary antibody, while functional expression of prostanoid receptors was detected by FLIPR screening (Matias et al., 2004). These stable cell lines were validated using previously published antagonists at 10 μM against serial dilutions of standard agonists by FLIPR functional assays for Ca^2+ Signaling (as described below).
(§3) Ca^2+ signaling studies were performed using a FLIPR TETRA system (Molecular Devices, Sunnyvale, Calif., USA) in the 384-format. This is a high-throughput instrument for cell-based assays to monitor Ca^2+ signaling associated with GPCRs and ion channels. Cells were seeded at a density of 5×10^4 cells/well in BioCoat poly-D-lysine coated, black wall, clear bottom 384-well plates (BD Biosciences, Franklin lakes, NJ, USA) and allowed to attach overnight in an incubator at 37° C. The cells were then washed twice with HBSS-HEPES buffer (Hanks' balanced salt solution without bicarbonate and phenol red, 20 mM HEPES, pH 7.4) using an ELx405 Select CW Microplate Washer (BioTek, Winooski, Vt., USA). After 60 min of dye-loading in the dark using the Ca^2+-sensitive dye Fluo-4AM (Invitrogen, Carlsbad, Calif., USA), at a final concentration of 2×10^−6M, the plates were washed 4 times with HBSS-HEPES buffer to remove excess dye and leaving 50 μl of buffer in each well. The plates were then placed in the FLIPR TETRA instrument and allowed to equilibrate at 37° C. Compounds were added in a 25 μl volume to each well to give final concentrations of 0.1 μM, 0.3 μM, 1 μM, 3 μM, 10 μM, and 30 μM; or 0.067 μM, 0.1 μM, 0.2 μM, 0.3 μM, 0.67 μM, and 1 μM for cells over-expressing TP receptors. After 4.5 minutes, a 7-point serial dilution of the standard agonist for the corresponding receptor, in a 25 μl volume was injected at the final concentrations from 10^−11M to 10^−5M in 10-fold serial dilution increments for cells expressing human recombinant DP1, EP1, EP2, EP3, EP4, FP, and IP receptors. The dose range for the standard agonist for human recombinant TP receptors was from 10^−12M to 10^−6M. HBSS-HEPES buffer was used as the negative control for the standard agonists. Cells were excited with LED (light emitting diode) excitation at 470-495 nm and emission was measured through an emission filter at 515-575 nm. Assay plates were read for 3.5 minutes using the FLIPR^TETRA. The peak increase in fluorescence intensity was recorded for each well. On each plate, negative controls, dose response of positive controls, and co-treatments of antagonist-agonist for each dose were in triplicates. Standard agonists were as follows: DP=BW 245C, EP1-EP4=PGE2, FP=17-phenyl-PGF2α, IP=Cicaprost, and TP=U-46619. […]

Test [2] has as its target T2, human prostanoid EP3 receptor (Homo sapiens, UniProt P43115).
T2 construct: expressed in transfected cells
T2 sequence (P43115 1-390): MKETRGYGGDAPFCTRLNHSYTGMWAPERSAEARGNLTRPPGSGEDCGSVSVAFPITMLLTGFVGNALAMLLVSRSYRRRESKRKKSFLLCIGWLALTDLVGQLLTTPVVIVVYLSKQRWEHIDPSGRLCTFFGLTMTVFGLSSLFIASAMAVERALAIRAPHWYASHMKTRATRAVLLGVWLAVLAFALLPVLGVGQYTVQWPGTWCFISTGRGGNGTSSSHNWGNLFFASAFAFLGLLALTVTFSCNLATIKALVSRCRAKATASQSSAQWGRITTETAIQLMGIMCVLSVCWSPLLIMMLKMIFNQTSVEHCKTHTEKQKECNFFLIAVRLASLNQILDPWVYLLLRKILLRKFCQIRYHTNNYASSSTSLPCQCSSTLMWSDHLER
The test is described as follows: FLIPR Ca2+ signaling PG antagonist assay, EP3 stable cell line. Conditions: HEK-293 EBNA cells, human recombinant EP3 with chimeric Gqi; standard agonist PGE2. On the procedure:
as §1, §2, §3

In test [3] the target is T3, human prostanoid EP4 receptor (Homo sapiens, UniProt P35408).
T3 construct: expressed in transfected cells
T3 sequence (P35408 whole entry): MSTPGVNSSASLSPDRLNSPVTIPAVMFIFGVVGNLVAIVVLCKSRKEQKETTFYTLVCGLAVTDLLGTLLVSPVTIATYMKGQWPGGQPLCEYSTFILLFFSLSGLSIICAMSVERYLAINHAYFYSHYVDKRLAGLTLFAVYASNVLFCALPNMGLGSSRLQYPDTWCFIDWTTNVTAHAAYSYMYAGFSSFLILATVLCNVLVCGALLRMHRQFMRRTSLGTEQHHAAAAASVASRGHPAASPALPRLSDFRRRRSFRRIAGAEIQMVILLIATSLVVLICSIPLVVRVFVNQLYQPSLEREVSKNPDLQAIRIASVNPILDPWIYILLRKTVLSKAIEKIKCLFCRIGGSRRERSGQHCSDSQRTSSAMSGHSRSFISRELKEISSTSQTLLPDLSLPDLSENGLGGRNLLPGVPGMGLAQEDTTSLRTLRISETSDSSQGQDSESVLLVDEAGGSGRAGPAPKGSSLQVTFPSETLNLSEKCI
Kind of test: FLIPR Ca2+ signaling PG antagonist assay, EP4 stable cell line. To be noted: HEK-293 EBNA cells, human recombinant EP4 with chimeric Gqs; standard agonist PGE2. On the procedure:
as §1, §2, §3

The text below walks through data of US10988474B2, “Compounds acting at multiple prostaglandin receptors giving a general anti-inflammatory response” (ALLERGAN, INC., priority 2011, dated 2021).

For `CCC(CC)COc1ccc(OC(F)(F)F)cc1Cn1cc(C)c2cc(C(=O)O)ccc21` [Example 77, 1-[2-(2-Ethyl-Butoxy)-5-Trifluoromethoxy-Benzyl]-3-Methyl-1H-Indole-5-Carboxylic Acid], the Kb – broadly, the equilibrium dissociation constant of an antagonist, usually derived from a functional assay – in test [1] is 900 nM; in test [2], at least 10 µM; in test [3], 1500 nM.
Taken in the same sequence, the figures for `O=C(O)c1ccc2c(cnn2Cc2cc(Br)ccc2OCC2CC2)c1` [Example 15, 1-(5-Bromo-2-Cyclopropylmethoxy-Benzyl)-1H-Indazole-5-Carboxylic Acid] were 190 nM, 8.4 µM and 200 nM.
The matching figures for `CC(C)COc1ccc(Br)cc1Cn1ccc2cc(C(=O)O)ccc21` [Example 67, 1-(5-Bromo-2-Isobutoxy-Benzyl)-1H-Indole-5-Carboxylic Acid]: 60 nM, at least 10 µM and 340 nM.
Taken in the same sequence, the figures for `CC(C)COc1ccc(Br)cc1Cn1ccc2nc(C(=O)O)ccc21` [Example 73, 1-(5-Bromo-2-Isobutoxy-Benzyl)-1H-Pyrrolo[3,2-B]Pyridine-5-Carboxylic Acid] were 80 nM, at least 10 µM and at least 10000 nM.
Consider `CCC(CC)COc1ccc(Cl)cc1Cn1ncc2ccc(C(=O)O)cc21` [Example 6], for which the Kb was at least 10000 nM in test [1], at least 10 µM in test [2] and at least 10000 nM in test [3].
In the case of `CC(C)COc1ccc(Cl)cc1Cn1ncc2cc(C(=O)O)cnc21` [Example 57, 1-(5-Chloro-2-Isobutoxy-Benzyl)-1H-Pyrazolo[3,4-B]Pyridine-5-Carboxylic Acid], the Kb in test [1] is 27 nM; in test [2], at least 10 µM; in test [3], 1300 nM.
Consider `CC(C)(C)COc1ccc(Br)cc1Cn1ncc2cc(C(=O)O)ccc21` [Example 52, 1-[5-Bromo-2-(2,2-Dimethyl-Propoxy)-Benzyl]-1H-Indazole-5-Carboxylic Acid], for which the antagonist equilibrium constant (Kb) in test [1] is 24 nM; in test [2], 2.1 µM; in test [3], 10 nM.
Take `CCc1nn(Cc2cc(Br)ccc2OCC(C)C)c2ccc(C(=O)O)cc12` [Example 64, 1-(5-Bromo-2-Isobutoxy-Benzyl)-3-Ethyl-1H-Indazole-5-Carboxylic Acid]: the Kb in test [1] was determined as 5 nM; in test [2], 2.9 µM; in test [3] it was 50 nM.
The matching figures for `O=C(O)c1cccc2nn(Cc3cc(Cl)ccc3OCc3ccc(Cl)cc3)cc12` [Example 41, 2-[5-Chloro-2-(4-Chloro-Benzyloxy)-Benzyl]-2H-Indazole-4-Carboxylic Acid]: at least 10000 nM, at least 10 µM and at least 10000 nM.
Regarding `Cc1cc2cc(C(=O)O)ccc2n1Cc1cc(Br)ccc1OCC(C)C` [Example 66, 1-(5-Bromo-2-Isobutoxy-Benzyl)-2-Methyl-1H-Indole-5-Carboxylic Acid], the Kb in test [1] is 50 nM; in test [2] it was at least 10 µM; in test [3] it was 1400 nM.
The matching figures for `CC(C)COc1ccc(Cl)cc1Cn1cc2cc(C(=O)O)ccc2n1` [Example 16, 2-(5-Chloro-2-Isobutoxy-Benzyl)-2H-Indazole-5-Carboxylic Acid]: 90 nM, 4 µM and 600 nM.
Taken in the same sequence, the figures for `CC(C)COc1ccc(Cl)cc1Cn1cc2c(C(=O)O)cccc2n1` [Example 37, 2-(5-Chloro-2-Isobutoxy-Benzyl)-2H-Indazole-4-Carboxylic Acid] were 480 nM, 3.4 µM and 700 nM.
The matching figures for `Cc1ccc(OCC(C)C)c(Cn2ncc3cc(C(=O)O)ccc32)n1` [Example 50, 1-(3-Isobutoxy-6-Methyl-Pyridin-2-ylmethyl)-1H-Indazole-5-Carboxylic Acid]: 90 nM, 7.1 µM and 1800 nM.
